Numbers after ± are expanded uncertainties.
Assay: mn = molality of the nth substance listed, in mol/kg
Details: 101.3 kPa, Liquid

COC(=O)[C@H](C)N.Cl [methyl L-alaninate hydrochloride] + O
speed of sound (278.15 K, Frequency=2 MHz, Linear variable-path acoustic interferometer, m1 = 0.0501): 1432 ± 2 m/s | speed of sound (278.15 K, Frequency=2 MHz, Linear variable-path acoustic interferometer, m1 = 0.0614): 1432.9 ± 2 m/s | speed of sound (278.15 K, Frequency=2 MHz, Linear variable-path acoustic interferometer, m1 = 0.0701): 1433.8 ± 2 m/s | speed of sound (278.15 K, Frequency=2 MHz, Linear variable-path acoustic interferometer, m1 = 0.082): 1435.4 ± 2 m/s | speed of sound (278.15 K, Frequency=2 MHz, Linear variable-path acoustic interferometer, m1 = 0.091): 1437.2 ± 2 m/s | speed of sound (278.15 K, Frequency=2 MHz, Linear variable-path acoustic interferometer, m1 = 0.1004): 1437.6 ± 2 m/s | speed of sound (278.15 K, Frequency=2 MHz, Linear variable-path acoustic interferometer, m1 = 0.1099): 1438.9 ± 2 m/s | speed of sound (278.15 K, Frequency=2 MHz, Linear variable-path acoustic interferometer, m1 = 0.1219): 1440 ± 2 m/s | speed of sound (278.15 K, Frequency=2 MHz, Linear variable-path acoustic interferometer, m1 = 0.1296): 1441.4 ± 2 m/s | speed of sound (278.15 K, Frequency=2 MHz, Linear variable-path acoustic interferometer, m1 = 0.1411): 1442.6 ± 2 m/s | speed of sound (278.15 K, Frequency=2 MHz, Linear variable-path acoustic interferometer, m1 = 0.1515): 1443.6 ± 2 m/s | speed of sound (278.15 K, Frequency=2 MHz, Linear variable-path acoustic interferometer, m1 = 0.1618): 1444.4 ± 2 m/s | mass density (278.15 K, Pycnometric method, m1 = 0.0501): 1001.79 ± 0.28 kg/m3 | mass density (278.15 K, Pycnometric method, m1 = 0.0614): 1002.2 ± 0.28 kg/m3 | mass density (278.15 K, Pycnometric method, m1 = 0.0701): 1002.52 ± 0.28 kg/m3 | mass density (278.15 K, Pycnometric method, m1 = 0.082): 1002.95 ± 0.28 kg/m3 | mass density (278.15 K, Pycnometric method, m1 = 0.091): 1003.28 ± 0.29 kg/m3 | mass density (278.15 K, Pycnometric method, m1 = 0.1004): 1003.62 ± 0.29 kg/m3 | mass density (278.15 K, Pycnometric method, m1 = 0.1099): 1003.97 ± 0.29 kg/m3 | mass density (278.15 K, Pycnometric method, m1 = 0.1219): 1004.4 ± 0.29 kg/m3 | mass density (278.15 K, Pycnometric method, m1 = 0.1296): 1004.68 ± 0.3 kg/m3 | mass density (278.15 K, Pycnometric method, m1 = 0.1411): 1005.1 ± 0.3 kg/m3 | mass density (278.15 K, Pycnometric method, m1 = 0.1515): 1005.48 ± 0.3 kg/m3 | mass density (278.15 K, Pycnometric method, m1 = 0.1618): 1005.86 ± 0.3 kg/m3 | speed of sound (288.15 K, Frequency=3 MHz, Sing-around technique in a fixed-path interferometer, m1 = 0.0502): 1470.7 ± 1.2 m/s | speed of sound (288.15 K, Frequency=3 MHz, Sing-around technique in a fixed-path interferometer, m1 = 0.0601): 1471.8 ± 1.2 m/s | speed of sound (288.15 K, Frequency=3 MHz, Sing-around technique in a fixed-path interferometer, m1 = 0.07): 1473.1 ± 1.2 m/s | speed of sound (288.15 K, Frequency=3 MHz, Sing-around technique in a fixed-path interferometer, m1 = 0.0801): 1474.1 ± 1.2 m/s | speed of sound (288.15 K, Frequency=3 MHz, Sing-around technique in a fixed-path interferometer, m1 = 0.0901): 1475.2 ± 1.2 m/s | speed of sound (288.15 K, Frequency=3 MHz, Sing-around technique in a fixed-path interferometer, m1 = 0.1003): 1476.3 ± 1.2 m/s | speed of sound (288.15 K, Frequency=3 MHz, Sing-around technique in a fixed-path interferometer, m1 = 0.1101): 1477.1 ± 1.2 m/s | speed of sound (288.15 K, Frequency=3 MHz, Sing-around technique in a fixed-path interferometer, m1 = 0.1202): 1477.8 ± 1.2 m/s | speed of sound (288.15 K, Frequency=3 MHz, Sing-around technique in a fixed-path interferometer, m1 = 0.13): 1478.9 ± 1.3 m/s | speed of sound (288.15 K, Frequency=3 MHz, Sing-around technique in a fixed-path interferometer, m1 = 0.1401): 1480 ± 1.3 m/s | speed of sound (288.15 K, Frequency=3 MHz, Sing-around technique in a fixed-path interferometer, m1 = 0.1504): 1481.1 ± 1.3 m/s | speed of sound (288.15 K, Frequency=3 MHz, Sing-around technique in a fixed-path interferometer, m1 = 0.1603): 1482.2 ± 1.3 m/s | mass density (288.15 K, Vibrating tube method, m1 = 0.0502): 1000.8 ± 0.11 kg/m3 | mass density (288.15 K, Vibrating tube method, m1 = 0.0601): 1001.13 ± 0.11 kg/m3 | mass density (288.15 K, Vibrating tube method, m1 = 0.07): 1001.47 ± 0.12 kg/m3 | mass density (288.15 K, Vibrating tube method, m1 = 0.0801): 1001.8 ± 0.12 kg/m3 | mass density (288.15 K, Vibrating tube method, m1 = 0.0901): 1002.14 ± 0.12 kg/m3 | mass density (288.15 K, Vibrating tube method, m1 = 0.1003): 1002.49 ± 0.13 kg/m3 | mass density (288.15 K, Vibrating tube method, m1 = 0.1101): 1002.82 ± 0.13 kg/m3 | mass density (288.15 K, Vibrating tube method, m1 = 0.1202): 1003.16 ± 0.13 kg/m3 | mass density (288.15 K, Vibrating tube method, m1 = 0.13): 1003.49 ± 0.14 kg/m3 | mass density (288.15 K, Vibrating tube method, m1 = 0.1401): 1003.83 ± 0.14 kg/m3 | mass density (288.15 K, Vibrating tube method, m1 = 0.1504): 1004.18 ± 0.15 kg/m3 | mass density (288.15 K, Vibrating tube method, m1 = 0.1603): 1004.51 ± 0.15 kg/m3 | speed of sound (298.15 K, Frequency=3 MHz, Sing-around technique in a fixed-path interferometer, m1 = 0.0486): 1500.6 ± 1.2 m/s | speed of sound (298.15 K, Frequency=3 MHz, Sing-around technique in a fixed-path interferometer, m1 = 0.0601): 1502.2 ± 1.2 m/s | speed of sound (298.15 K, Frequency=3 MHz, Sing-around technique in a fixed-path interferometer, m1 = 0.0697): 1503 ± 1.2 m/s | speed of sound (298.15 K, Frequency=3 MHz, Sing-around technique in a fixed-path interferometer, m1 = 0.0819): 1503.6 ± 1.2 m/s | speed of sound (298.15 K, Frequency=3 MHz, Sing-around technique in a fixed-path interferometer, m1 = 0.0899): 1504.7 ± 1.2 m/s | speed of sound (298.15 K, Frequency=3 MHz, Sing-around technique in a fixed-path interferometer, m1 = 0.0963): 1505.2 ± 1.2 m/s | speed of sound (298.15 K, Frequency=3 MHz, Sing-around technique in a fixed-path interferometer, m1 = 0.11): 1506.4 ± 1.2 m/s | speed of sound (298.15 K, Frequency=3 MHz, Sing-around technique in a fixed-path interferometer, m1 = 0.1184): 1507.1 ± 1.2 m/s | speed of sound (298.15 K, Frequency=3 MHz, Sing-around technique in a fixed-path interferometer, m1 = 0.1302): 1508 ± 1.2 m/s | speed of sound (298.15 K, Frequency=3 MHz, Sing-around technique in a fixed-path interferometer, m1 = 0.1401): 1508.9 ± 1.3 m/s | speed of sound (298.15 K, Frequency=3 MHz, Sing-around technique in a fixed-path interferometer, m1 = 0.1507): 1509.8 ± 1.2 m/s | speed of sound (298.15 K, Frequency=3 MHz, Sing-around technique in a fixed-path interferometer, m1 = 0.1601): 1510.3 ± 1.2 m/s | mass density (298.15 K, Vibrating tube method, m1 = 0.0486): 998.75 ± 0.11 kg/m3 | mass density (298.15 K, Vibrating tube method, m1 = 0.0601): 999.01 ± 0.11 kg/m3 | mass density (298.15 K, Vibrating tube method, m1 = 0.0697): 999.32 ± 0.11 kg/m3 | mass density (298.15 K, Vibrating tube method, m1 = 0.0819): 999.68 ± 0.12 kg/m3 | mass density (298.15 K, Vibrating tube method, m1 = 0.0899): 999.97 ± 0.12 kg/m3 | mass density (298.15 K, Vibrating tube method, m1 = 0.0963): 1000.19 ± 0.12 kg/m3 | mass density (298.15 K, Vibrating tube method, m1 = 0.11): 1000.61 ± 0.13 kg/m3 | mass density (298.15 K, Vibrating tube method, m1 = 0.1184): 1000.89 ± 0.13 kg/m3 | mass density (298.15 K, Vibrating tube method, m1 = 0.1302): 1001.2 ± 0.13 kg/m3 | mass density (298.15 K, Vibrating tube method, m1 = 0.1401): 1001.54 ± 0.15 kg/m3 | mass density (298.15 K, Vibrating tube method, m1 = 0.1507): 1001.93 ± 0.14 kg/m3 | mass density (298.15 K, Vibrating tube method, m1 = 0.1601): 1002.17 ± 0.13 kg/m3
